PubChem BioAssay (NCI)
Several values for one entry are separate records, joined by “and”; a condition that tells them apart may be missing. Equal entries are not always repeated.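 Values below derive from 48-hour exposures of cells grown in 96-well plates, with endpoints linearly interpolated between the two concentrations bracketing the appropriate inhibition level. GI50 marks 50% less growth. TGI denotes the concentration required for complete inhibition of growth.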

Experiments:
Assay in all cases: NCI tumour cell line growth inhibition, 48 h
BT-549 breast = tested on: BT-549 breast
UACC-257 melanoma = tested on: UACC-257 melanoma
HCC-2998 colon = tested on: HCC-2998 colon
DU-145 prostate = tested on: DU-145 prostate
MCF7 breast = tested on: MCF7 breast
OVCAR-3 ovarian = tested on: OVCAR-3 ovarian
MDA-N = tested on: MDA-N
SK-MEL-2 melanoma = tested on: SK-MEL-2 melanoma
HCT-116 colon = tested on: HCT-116 colon
M14 melanoma = tested on: M14 melanoma
LOX IMVI melanoma = tested on: LOX IMVI melanoma

Work on `COC(=O)[C@H](CNC(=O)/C=C/c1ccc(OC(C)=O)c(OC(C)=O)c1)NC(=O)/C=C/c1ccc(OC(C)=O)c(OC(C)=O)c1` yielded a TGI (BT-549 breast) greater than 100 µM, a TGI (UACC-257 melanoma) greater than 100 µM and a TGI (HCC-2998 colon) greater than 100 µM. The TGI (DU-145 prostate) was greater than 100 µM, the TGI (MCF7 breast) was greater than 100 µM and the TGI (OVCAR-3 ovarian) was greater than 100 µM. The TGI (MDA-N) was greater than 100 µM, the TGI (SK-MEL-2 melanoma) was greater than 100 µM and the TGI (HCT-116 colon) was greater than 100 µM. The TGI (M14 melanoma) was greater than 100 µM and the TGI (LOX IMVI melanoma) was greater than 100 µM.

`COc1ccc2c(c1)CC[C@@H]1[C@@H]2CC[C@]2(C)/C(=N/OCCN3CCCC3)CC[C@@H]12` gave a TGI (BT-549 breast) of 22.4 µM, a TGI (UACC-257 melanoma) of 3.81 µM and a TGI (HCC-2998 colon) of 3.49 µM. The TGI (DU-145 prostate) was 15.5 µM, the TGI (MCF7 breast) was 8.92 µM and the TGI (OVCAR-3 ovarian) was 16.2 µM. The TGI (MDA-N) was 3.98 µM, the TGI (SK-MEL-2 melanoma) was 4.2 µM and the TGI (HCT-116 colon) was 3.43 µM. For the same compound, the TGI (M14 melanoma) was 2.64 µM and the TGI (LOX IMVI melanoma) was 3.19 µM.

`CC12NC(=C(C#N)C#N)C(C#N)=C3NC(N)=C(C#N)C(=C31)Oc1ccccc12` (stereo not drawn) showed a TGI (BT-549 breast) greater than 100 µM, a TGI (UACC-257 melanoma) greater than 100 µM and a TGI (HCC-2998 colon) greater than 100 µM. For the same compound, the TGI (DU-145 prostate) was greater than 100 µM, the TGI (MCF7 breast) was greater than 100 µM and the TGI (OVCAR-3 ovarian) was greater than 24.9 µM. The TGI (MDA-N) was greater than 31.6 µM, the TGI (SK-MEL-2 melanoma) was greater than 80.9 µM and the TGI (HCT-116 colon) was greater than 100 µM. It also gave a TGI (M14 melanoma) greater than 100 µM and a TGI (LOX IMVI melanoma) greater than 100 µM.

Compound `C[C@@H]1C[C@H]2OC(=O)[C@@]3(C)CCC[C@@](C)([C@@H]23)[C@@]1(O)CCc1ccoc1` has a TGI (BT-549 breast) greater than 100 µM, a TGI (UACC-257 melanoma) greater than 100 µM and a TGI (HCC-2998 colon) greater than 100 µM. The TGI (DU-145 prostate) was greater than 100 µM, the TGI (MCF7 breast) was greater than 100 µM and the TGI (OVCAR-3 ovarian) was greater than 100 µM. It also gave a TGI (MDA-N) greater than 100 µM, a TGI (SK-MEL-2 melanoma) greater than 100 µM and a TGI (HCT-116 colon) greater than 100 µM. For the same compound, the TGI (M14 melanoma) was greater than 100 µM and the TGI (LOX IMVI melanoma) was greater than 100 µM.

`COC(=O)C1OC(O[C@H]2CC[C@]3(C)[C@H]4CC=C5[C@@H]6CC(C)(C)CC[C@]6(C(=O)OC)CC[C@@]5(C)[C@]4(C)CC[C@H]3C2(C)C)C(O)C(O)C1O` (stereo partly drawn) was tested, and the TGI (BT-549 breast) was 32.1 µM, the TGI (UACC-257 melanoma) was 35.4 µM and the TGI (HCC-2998 colon) was 20.3 µM. The TGI (DU-145 prostate) was 27.9 µM, the TGI (MCF7 breast) was 29.2 µM and the TGI (OVCAR-3 ovarian) was 15.5 µM. For the same compound, the TGI (MDA-N) was 30.9 µM, the TGI (SK-MEL-2 melanoma) was 31.9 µM and the TGI (HCT-116 colon) was 26.2 µM. It also gave a TGI (M14 melanoma) of 30 µM and a TGI (LOX IMVI melanoma) of 20 µM.

Work on `Cc1ccc(S(=O)(=O)N(CC(O)COc2ccccc2)c2c(F)c(F)cc(F)c2F)cc1` (stereo not drawn) yielded a TGI (BT-549 breast) of 48.7 µM, a TGI (HCC-2998 colon) of 53.5 µM and a TGI (DU-145 prostate) greater than 100 µM. The TGI (MCF7 breast) was 32.7 µM, the TGI (OVCAR-3 ovarian) was 54.1 µM and the TGI (MDA-N) was 35.7 µM. The TGI (SK-MEL-2 melanoma) was 31.3 µM, the TGI (HCT-116 colon) was greater than 100 µM and the TGI (M14 melanoma) was 61.5 µM. For the same compound, the TGI (LOX IMVI melanoma) was 37.6 µM.

`COc1cc(C2CC(C)(N3CCOCC3)Oc3cc4c(cc32)OCO4)cc(OC)c1OC` (stereo not drawn) was tested, and the TGI (BT-549 breast) was greater than 100 µM, the TGI (UACC-257 melanoma) was greater than 100 µM and the TGI (HCC-2998 colon) was 2.11 µM. For the same compound, the TGI (DU-145 prostate) was greater than 33.1 µM, the TGI (MCF7 breast) was greater than 100 µM and the TGI (OVCAR-3 ovarian) was greater than 100 µM. For the same compound, the TGI (MDA-N) was 0.439 µM, the TGI (SK-MEL-2 melanoma) was greater than 35.9 µM and the TGI (HCT-116 colon) was greater than 100 µM. For the same compound, the TGI (M14 melanoma) was greater than 100 µM and the TGI (LOX IMVI melanoma) was greater than 100 µM.

With `c1ccc(CN2CCC(=NN3CCCCC3)CC2)cc1` the TGI (BT-549 breast) was greater than 100 µM, the TGI (UACC-257 melanoma) was greater than 100 µM and the TGI (HCC-2998 colon) was greater than 100 µM. The TGI (DU-145 prostate) was greater than 100 µM, the TGI (MCF7 breast) was greater than 100 µM and the TGI (OVCAR-3 ovarian) was greater than 100 µM. It also gave a TGI (MDA-N) greater than 100 µM, a TGI (SK-MEL-2 melanoma) greater than 100 µM and a TGI (HCT-116 colon) greater than 100 µM. The TGI (M14 melanoma) was greater than 100 µM and the TGI (LOX IMVI melanoma) was greater than 100 µM.

For `CC1=C(C(=O)NNC(=O)Cc2ccccc2)CC(C(=O)NNC(=O)Cc2ccccc2)=C(C)N1`, the TGI (BT-549 breast) was greater than 100 µM, the TGI (UACC-257 melanoma) was greater than 100 µM and the TGI (HCC-2998 colon) was greater than 100 µM. The TGI (DU-145 prostate) was greater than 100 µM, the TGI (MCF7 breast) was greater than 100 µM and the TGI (OVCAR-3 ovarian) was greater than 100 µM. The TGI (MDA-N) was greater than 100 µM, the TGI (SK-MEL-2 melanoma) was greater than 100 µM and the TGI (HCT-116 colon) was greater than 100 µM. It also gave a TGI (M14 melanoma) greater than 100 µM and a TGI (LOX IMVI melanoma) greater than 100 µM.

Compound `CCCNC1=C2C[C@@H](C)C[C@@H](OC)[C@@H](OC(=O)CCCN)[C@H](C)/C=C(\C)[C@@H](OC(N)=O)[C@H](OC)/C=C\C=C(/C)C(=O)NC(=CC1=O)C2=O` has a TGI (BT-549 breast) of 29.4 µM, a TGI (UACC-257 melanoma) of 12 µM and a TGI (HCC-2998 colon) of 38.1 µM. For the same compound, the TGI (DU-145 prostate) was 26.3 µM, the TGI (MCF7 breast) was 31.4 µM and the TGI (OVCAR-3 ovarian) was 24 µM. For the same compound, the TGI (MDA-N) was 30.1 µM, the TGI (SK-MEL-2 melanoma) was 30.9 µM and the TGI (HCT-116 colon) was 28.3 µM. It also gave a TGI (M14 melanoma) of 32.3 µM and a TGI (LOX IMVI melanoma) greater than 48.3 µM.

For `C=C1C(=O)OC2C1CCC(=C)C1CC(O)C(=C)C12` (stereo not drawn), the TGI (BT-549 breast) was 30.4 µM, the TGI (UACC-257 melanoma) was 27.2 µM and the TGI (HCC-2998 colon) was 27.9 µM. The TGI (DU-145 prostate) was 29 µM, the TGI (MCF7 breast) was 25.5 µM and the TGI (OVCAR-3 ovarian) was 27.9 µM. For the same compound, the TGI (MDA-N) was 26.7 µM, the TGI (SK-MEL-2 melanoma) was 32.7 µM and the TGI (HCT-116 colon) was 26.4 µM. It also gave a TGI (M14 melanoma) of 41 µM and a TGI (LOX IMVI melanoma) of 20.9 µM.

In the case of `COc1ccc(/C=C2/N=C(N/N=C\C(O)C(O)C(O)CO)NC2=O)cc1` (stereo not drawn), the TGI (BT-549 breast) is reported as greater than 100 µM, the TGI (UACC-257 melanoma) is reported as greater than 100 µM and the TGI (HCC-2998 colon) is reported as greater than 100 µM. For the same compound, the TGI (DU-145 prostate) was greater than 100 µM, the TGI (MCF7 breast) was greater than 100 µM and the GI50 (OVCAR-3 ovarian) was > 100 µM and 24.3 µM. The TGI (OVCAR-3 ovarian) was > 100 µM and 67.8 µM, the TGI (MDA-N) was greater than 100 µM and the TGI (SK-MEL-2 melanoma) was greater than 100 µM. For the same compound, the TGI (HCT-116 colon) was greater than 100 µM, the TGI (M14 melanoma) was greater than 100 µM and the TGI (LOX IMVI melanoma) was greater than 100 µM.

Work on `CC[C@H](C)[C@H](NC(=O)N(CCC#N)CCN(CCN(C(=O)N[C@@H](Cc1ccccc1)C(=O)OC)c1ccccc1)C(=O)N[C@H](C(=O)OC)C(C)C)C(=O)OC` yielded a TGI (BT-549 breast) of 44.7 µM, a TGI (UACC-257 melanoma) of 29 µM and a TGI (HCC-2998 colon) of 39.5 µM. It also gave a TGI (DU-145 prostate) of 41.2 µM, a TGI (MCF7 breast) of 74.6 µM and a TGI (OVCAR-3 ovarian) of 39.7 µM. For the same compound, the TGI (MDA-N) was 31.7 µM, the TGI (SK-MEL-2 melanoma) was 43.4 µM and the TGI (HCT-116 colon) was 36 µM. For the same compound, the TGI (M14 melanoma) was 44.8 µM and the TGI (LOX IMVI melanoma) was 37.4 µM.
